Source: publication PMC12693135, “Ocular Toxicity and Mechanistic Investigation for Berberine and Its Metabolite Berberrubine on Zebrafish” (Molecules, 2025)

What was measured:
[1] = tested on: human corneal epithelial (HCE-T) cell line; assay: MTT cytotoxicity assay on HCE-T cells; assay type: cell-based
Experimental: (§1) The human corneal epithelial cell line HCE-T (Cellosaurus accession: CVCL_1272, RRID: CVCL_1272, RCB: RCB2280) was purchased from Procell Life Science and Technology Co., Ltd. (Wuhan, China). […] were cultured in high-glucose Dulbecco’s Modified Eagle Medium (DMEM), which was purchased from Procell Life Science and Technology Co., Ltd. (Wuhan, China). The high-glucose DMEM was DMEM basic medium supplemented with 15% fetal bovine serum (Procell), 1% penicillin/streptomycin (Procell), 5 μg/mL insulin, and 10 ng/mL human epidermal growth factor (Procell).
(§2) HCE-T cells were seeded in 96-well plates (8 × 10^3 cells/well, 100 μL medium) and cultured overnight at 37 °C, 5% CO2 for adhesion. BBR or its metabolites at various concentrations (BBR and M3 at the concentrations of 31.25, 62.5, 125, 250 and 500 µM, M1 and M4 at the concentrations of 25, 50, 100, 200 and 400 µM) in 0.5% DMSO were added and incubated for 24 h, with 0.5% DMSO in culture medium as the vehicle control. Subsequently, 20 μL MTT (5 mg/mL) was added to each well and the cells were cultured at 37 °C for 4 h. Then, the culture medium was removed, and 150 μL DMSO was added to dissolve formazan crystals and the absorbance at 570 nm was measured on a Synergy H1 multifunctional microplate reader (Biotek, Winooski, VT, USA). The IC50 values of test compounds were calculated by Graphpad Prism 8.5 (GraphPad Software Co., San Diego, CA, USA).

[2] = MTT cytotoxicity assay on HCE-T cells; assay type: cell-based, human; conditions: human, HCE-T human corneal epithelial cells; HCE-T cells, 24 h incubation
Experimental: as §1, §2

| Structure (SMILES) | IC50 [1] [µM] | IC50 at 24 h [2] [µM] |
| --- | --- | --- |
| COc1ccc2cc3[n+](cc2c1OC)CCc1cc(O)c(O)cc1-3 [M3, demethyleneberberine] | > 400 | – |
| COc1cc2c(cc1O)CC[n+]1cc3c(OC)c(OC)ccc3cc1-2 [M4, jatrorrhizine] | – | > 400 |
